Where two headings read alike, the source gives them in different places.
Experiments:
Type in all cases: cell-based
[1] = system: rat NP cells; test: Western blotting of rat NP cells treated with IL-1β/TNFα with or without inhibitors or growth factors
Experimental: (§1) After euthanasia, healthy rat lumbar/caudal spine IVDs, injured tail discs and bovine caudal IVD NPs were removed aseptically and the nucleus pulposus (NP) was removed separately and enzymatically digested according to methods established by the present inventors^16. Similarly, human degenerative disc NPs were enzymatically digested using Pronase (0.4%, 1 hr at 37° C.) followed by Collagenase II treatment (0.015%, O/N, 37° C.). The following day, the cells were filtered with a 70p cell strainer and cultured within a hypoxic incubator (NuAire, MN, USA) in 3.5% O2, 5% CO2, in Advanced Dulbecco's modified Eagle's medium (ADMEM) supplemented with 8% fetal bovine serum (FBS) and penicillin and streptomycin (100 U/mL). For treatments, the cells were either cultured in serum free ADMEM (no treatment controls) or treated with interleukin-1β (IL-1β, 10 ng/mL), tumor necrosis factor-alpha (TNFα, 50 ng/mL), connective tissue growth factor (CTGF, 10-100 ng/mL), Wnt-inducible soluble protein 2 (WISP2, 10-100 ng/mL) or transforming growth factor beta 1 (TGFβ1, 5-20 ng/mL) for various time points under hypoxic conditions.
(§2) Equal amounts of whole cell or tissue lysates prepared using RIPA lysis buffer were subjected to Western blotting as described earlier^18,19. Total lysates (30 μg) were resolved on 10% sodium dodecyl sulphate-polyacrylamide gels (SDS-PAGE) under reducing conditions and then proteins were electro-transferred onto polyvinyledendifluoride (PVDF) membranes (BioRad, CA). After blocking with 5% non-fat powdered milk in Tris-buffered saline (TBS, 0.1 M, pH=7.4), blots were incubated with rabbit or goat polyclonal/mouse monoclonal primary antibodies at 4° C. overnight. […] Blots were washed three times with TTBS for 15 minutes and protein bands were detected by the enhanced chemiluminescence method (BioRad, CA) on Kodak Hyperfilm.

[2] = system: human degenerative disc NP cells; test: Western blotting of human degenerative disc NP cells; settings: IL-1β and TNFα, Western blots, FIG. 2h
Experimental: as §1, §2

[3] = system: rat NP cells; test: ECM and cell adhesion molecule gene array, real time quantitative PCR; settings: 24 hrs, vs no treatment control
Experimental: To determine the effect of IL-1β and TNFα on ECM turnover, rat NP cells were treated with IL-1β alone or in combination with TNFα for 24 hrs and real time quantitative PCR was performed using the ECM and cell adhesion molecule gene arrays (includes 84 genes).
as §1
Total RNA from healthy and treated (IL-1β alone or in combination with TNFα) rat NP cells, were isolated using RNAeasy extraction kit (Cat #74134, Qiagen) and quantified using a Nanodrop spectrophotometer. Total RNA (˜400 ng) was reverse-transcribed using RT^2 First Strand Kit (Cat #330401, Qiagen) following the manufacturer's instructions for preparing cDNA. To evaluate the effect of IL-1β alone or in combination with TNFα on extra-cellular matrix (ECM) genes in rat NP cells, the RT^2 Profiler™ PCR Array Rat Extracellular Matrix & Adhesion Molecules (PARN-013Z, Qiagen) was used and compared with no treatment controls (NTC) in 3 independent experiments using real time PCR performed on ABI 7900HT 384-well Fast block machine. Data analysis including calculation of ΔΔCt values, fold changes and p-values was carried out using software available online (https://www.qiagen.com/ca). Total RNA was isolated from human degenerative disc NP cells (H1/H2) treated with CTGF, TGFβ1, CTGF+TGFβ1 to evaluate their effect on collagen 2, HAPLN1, versican and thrombospondin 1 using gene specific primers. Similarly, RNA was isolated from human NP cells were treated with […] alone or in combination TNFα in presence of CTGF and TGFβ1 to determine their effect on Cox2 and MMP-13 expression using qRT-PCR.

[4] = rat NP cells treated with IL-1β and TNFα, Western blot, FIG. 2f-2g

Compound: N#CC(=C(/N)Sc1ccccc1N)/C(C#N)=C(\N)Sc1ccccc1N [U0126]
- IL-1β and TNFα induced MMP-3, MMP-13 and Cox2 expression in presence of inhibitor [1]: failed to induce

Compound: C[S+]([O-])c1ccc(-c2nc(-c3ccncc3)c(-c3ccc(F)cc3)[nH]2)cc1 (stereo not shown) [SB203580]
- MMP-3, MMP-13 and Cox2 expression in presence of inhibitor ([1]; IL-1β treated rat NP cells, Western blot, FIG. 2f): reduced expression
- cytokine induced Cox2 expression in presence of inhibitor [2]: decreased expression

Compound: Cc1ccc(S(=O)(=O)/C=C/C#N)cc1 [BAY-11-7082]
- IL-1β and TNFα induced MMP-3, MMP-13 and Cox2 expression in presence of inhibitor [1, 4]: Reduced expression
- cytokine induced Cox2 expression in presence of inhibitor [2]: decreased expression

Compound: COC[C@H]1OC(=O)c2coc3c2[C@@]1(C)C1=C(C3=O)[C@@H]2CCC(=O)[C@@]2(C)C[C@H]1OC(C)=O [Wortamanin]
- IL-1β and TNFα induced MMP-3, MMP-13 and Cox2 expression in presence of inhibitor [1, 4]: reduced expression of MMP-3 and MMP-13 only

Compound: C[C@H](NC(=O)/C(C#N)=C/c1cccc(Br)n1)c1ccccc1 [STAT3 inhibitor]
- IL-1β and TNFα induced MMP-3, MMP-13 and Cox2 expression in presence of inhibitor [1, 4]: Reduced expression
- cytokine induced Cox2 expression in presence of inhibitor [2]: decreased expression

Compound: IL1β: Human recombinant pro-inflammatory cytokine interleukin-1 beta, purchased from Peprotech, used at 10 ng/mL
- Fold regulation (IL1β vs NTC), gene Adamts8 [3]: 139.39
- Fold regulation (IL1β vs NTC), gene Cd44 [3]: 23.57
- Fold regulation (IL1β vs NTC), gene Cdh3 [3]: −6.18
- Fold regulation (IL1β vs NTC), gene Col3a1 [3]: −3.80
- Fold regulation (IL1β vs NTC), gene Col4a1 [3]: 4.24
- Fold regulation (IL1β vs NTC), gene Col4a2 [3]: 3.20
- Fold regulation (IL1β vs NTC), gene Ctgf [3]: −2.40
- Fold regulation (IL1β vs NTC), gene Emilin1 [3]: 4.42
- Fold regulation (IL1β vs NTC), gene Hapln1 [3]: −6.01
- Fold regulation (IL1β vs NTC), gene Icam1 [3]: 6.56
- Fold regulation (IL1β vs NTC), gene Itga3 [3]: 9.22
- Fold regulation (IL1β vs NTC), gene Itga5 [3]: 6.23
- Fold regulation (IL1β vs NTC), gene Itgav [3]: 2.14
- Fold regulation (IL1β vs NTC), gene Lamc1 [3]: 4.24
- Fold regulation (IL1β vs NTC), gene MMP3 [3]: 68.04
- Fold regulation (IL1β vs NTC), gene MMP9 [3]: 1252.77
- Fold regulation (IL1β vs NTC), gene MMP13 [3]: 36.82
- Fold regulation (IL1β vs NTC), gene Mmp11 [3]: −3.86
- Fold regulation (IL1β vs NTC), gene Ncam1 [3]: −2.00
- Fold regulation (IL1β vs NTC), gene Thbs1 [3]: −3.35
- Fold regulation (IL1β vs NTC), gene Thbs2 [3]: −4.14
- Fold regulation (IL1β vs NTC), gene Timp1 [3]: 5.04
- phosphorylation levels of c-Raf (S259), p42/44 (Thr202/Tyr204) and p38MAPK (Thr180/Tyr182) ([1]; rat NP cells, 5-60 minutes, no significant change in total protein): increased phosphorylation levels

Source: patent US12465618B2, “Compositions and methods for degenerative disc regeneration” (University Health Network, priority 2015, dated 2025)
